Assay [1] concerns Primary T cells CD4+ naive. Nature of the assay: cytotoxicity relative to DMSO, 18 h (ratio); higher = less cell death (drugs called cytotoxic fall below 1). The procedure, abridged:
(§1)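 Fluorescence was imaged at ×10, five images per well, every hour for 3 h, in 96-well plates holding 100 µl of treated cell suspension and IncuCyte Cytotox Dye at 250 nM final. Before plating, Jurkat cells or primary CD4+/CD8+ T cells (naive, or activated 48 h with CD3/CD28 Dynabeads) had been treated for 18 h with compound across 1 nM–10 µM in log10 steps at 37 °C, 5% CO2. Cytotoxicity values were based on these IncuCyte signals after confluency correction and normalisation to the mean of control wells.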

The test system of assay [2] is Jurkat. The description is as above. The procedure, abridged:
as §1

The test system of assay [3] is Primary T cells CD4+ naive. Briefly: metabolic activity relative to DMSO, 18 h (ratio); higher = more viable. The procedure, abridged: (§2)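 Jurkat or primary CD4+/CD8+ T cells (naive, or activated 48 h with CD3/CD28 Dynabeads) were treated 18 h with compound at 1 nM–10 µM (log10 steps) at 37 °C, 5% CO2. Then 100 µl of suspension went into 96-well plates with alamarBlue (10% v/v final). After 3.5 h, fluorescence was read on a FluoStar Omega (excitation 544 nm, emission 584 nm). Metabolic activity is normalised to mean DMSO controls.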

Assay [4] relates to Jurkat. The description is as above. The procedure, abridged:
as §2

Assay [5] deals with Primary T cells CD4+ naive. Briefly: confluency relative to DMSO, 18 h (ratio); higher = more viable. The procedure, abridged: (§3)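 Jurkat cells and primary CD4+/CD8+ T cells, naive or activated with CD3/CD28 Dynabeads for 48 h, were treated with compound (1 nM–10 µM, log10 steps) for 18 h at 37 °C. Following transfer of 100 µl into 96-well plates with IncuCyte Cytotox Dye and alamarBlue, wells were imaged at ×10, five images per well, each hour for 3 h. Confluency, obtained with the IncuCyte Basic Analyzer from phase-contrast images, is normalised to the mean of the control wells.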

For assay [6], the system named is Jurkat. The assay is described as above. The procedure, abridged: as §3
In assay [7] the test system is Primary T cells CD4+ activated. Nature of the assay: metabolic activity relative to DMSO, 18 h (ratio); higher = more viable. The gist of the method:
as §2

Drawing on the supplement of paper PMC11919725, this text covers cytotoxicity, metabolic activity and confluency for 5 molecules.

As to `Nc1cc(F)ccc1NC(=O)c1ccc(CNC(=O)C=Cc2cccnc2)cc1` [Tucidinostat], the cytotoxicity in assay [1] (1 nM) is 1.13; in assay [1] (10 nM), 1.05; in assay [1] (100 nM), 1.42; in assay [1] (1000 nM) it was 1.19; in assay [1] (10000 nM), 0.636; in the assay with Jurkat [2] (1 nM), 1.08. The cytotoxicity with Jurkat [2] (10 nM) turned out to be 0.992; with Jurkat [2] (100 nM) it was 0.929; in the assay with Jurkat [2] (1000 nM), 0.871; in the assay on Jurkat [2] (10000 nM) it was 0.987. The metabolic activity was 0.862 in assay [3] (1 nM); 1.05 in assay [3] (10 nM); 0.872 in assay [3] (100 nM); 0.881 in assay [3] (1000 nM); 0.697 in assay [3] (10000 nM); 0.891 in the assay on Jurkat [4] (1 nM). Moreover, the metabolic activity with Jurkat [4] (10 nM) was 0.945; in the assay on Jurkat [4] (100 nM), 0.974; in the assay with Jurkat [4] (1000 nM), 0.952; in the assay with Jurkat [4] (10000 nM) it was 0.882. The confluency in assay [5] (1 nM) came to 1.08; in assay [5] (10 nM), 1.18; in assay [5] (100 nM), 1.3; in assay [5] (1000 nM) it was 1.26; in assay [5] (10000 nM), 0.617; in the assay on Jurkat [6] (1 nM), 1. The confluency is 0.981 in the assay on Jurkat [6] (10 nM), 0.912 in the assay on Jurkat [6] (100 nM), 0.878 with Jurkat [6] (1000 nM) and 1.03 with Jurkat [6] (10000 nM).

Regarding `CCC1(O)CC2CN(CCc3c([nH]c4ccccc34)C(C(=O)OC)(c3cc4c(cc3OC)N(C=O)C3C(O)(C(=O)OC)C(OC(C)=O)C5(CC)C=CCN6CCC43C65)C2)C1` (stereo not given) [Vincristine], the cytotoxicity in the assay on Jurkat [2] (1 nM) was 0.824; in the assay on Jurkat [2] (10 nM) it was 0.698; in the assay with Jurkat [2] (100 nM), 0.662; with Jurkat [2] (1000 nM), 0.611; in the assay on Jurkat [2] (10000 nM), 0.585. Moreover, the metabolic activity worked out at 0.536 in the assay with Jurkat [4] (1 nM); 0.402 with Jurkat [4] (10 nM); 0.366 in the assay with Jurkat [4] (100 nM); 0.394 with Jurkat [4] (1000 nM); 0.412 in the assay with Jurkat [4] (10000 nM). Besides, the confluency in the assay on Jurkat [6] (1 nM) stood at 0.98; in the assay with Jurkat [6] (10 nM), 0.875; in the assay with Jurkat [6] (100 nM) it was 0.82; with Jurkat [6] (1000 nM), 0.781; in the assay on Jurkat [6] (10000 nM), 0.762.

As to `O=C(CCCCCCC(=O)Nc1ccccc1)NO` [Vorinostat], the metabolic activity is 0.859 in assay [3] (1 nM); 0.862 in assay [3] (10 nM); 0.902 in assay [3] (100 nM); 1.02 in assay [3] (1000 nM); 0.913 in assay [3] (10000 nM); 0.947 in the assay on Jurkat [4] (1 nM). Besides, the metabolic activity with Jurkat [4] (10 nM) amounted to 0.907; in the assay with Jurkat [4] (100 nM) it was 0.815; in the assay on Jurkat [4] (1000 nM) it was 0.809; in the assay on Jurkat [4] (10000 nM), 0.764; in assay [7] (1 nM), 0.849; in assay [7] (10 nM), 0.979. The metabolic activity in assay [7] (100 nM) came out at 0.964; in assay [7] (1000 nM) it was 0.945; in assay [7] (10000 nM), 0.788. Further, the confluency with Jurkat [6] (1 nM) is 1.03; in the assay on Jurkat [6] (10 nM) it was 1; in the assay with Jurkat [6] (100 nM), 1.14; in the assay on Jurkat [6] (1000 nM), 1.11; with Jurkat [6] (10000 nM) it was 1.36.

For the molecule `CCn1c(=O)c(-c2ccn[nH]2)cc2c(C)nc(N)nc21` [Voxtalisib], the cytotoxicity came out at 0.985 in the assay with Jurkat [2] (1 nM); 0.977 in the assay on Jurkat [2] (10 nM); 0.966 in the assay with Jurkat [2] (100 nM); 0.943 with Jurkat [2] (1000 nM); 1.02 with Jurkat [2] (10000 nM). Also, the metabolic activity in the assay with Jurkat [4] (1 nM) is 1.05; with Jurkat [4] (10 nM), 1.02; with Jurkat [4] (100 nM), 0.993; in the assay on Jurkat [4] (1000 nM) it was 0.924; with Jurkat [4] (10000 nM) it was 1. Also, the confluency was 1 with Jurkat [6] (1 nM); 1.01 with Jurkat [6] (10 nM); 1.02 in the assay on Jurkat [6] (100 nM); 1.02 in the assay on Jurkat [6] (1000 nM); 1.04 in the assay with Jurkat [6] (10000 nM).

For `CN1CC=CCCOc2cccc(c2)-c2ccnc(n2)Nc2cccc(c2)C1` [Zotiraciclib], the cytotoxicity amounted to 0.95 in the assay with Jurkat [2] (1 nM); 0.924 in the assay with Jurkat [2] (10 nM); 0.468 in the assay on Jurkat [2] (100 nM); 0.473 in the assay with Jurkat [2] (1000 nM); 0.436 with Jurkat [2] (10000 nM). Further, the metabolic activity was determined as 1.03 with Jurkat [4] (1 nM); 0.912 with Jurkat [4] (10 nM); 0.094 in the assay with Jurkat [4] (100 nM); 0.085 in the assay on Jurkat [4] (1000 nM); 0.05 in the assay with Jurkat [4] (10000 nM). Also, the confluency in the assay on Jurkat [6] (1 nM) is 0.992; in the assay on Jurkat [6] (10 nM) it was 0.992; with Jurkat [6] (100 nM), 0.923; in the assay with Jurkat [6] (1000 nM), 0.908; in the assay with Jurkat [6] (10000 nM) it was 0.882.
